Measured values from patent US8586611B2 (priority 2005, dated 2013).

Legend:
Type in all cases: in vivo
Plasmopara viticola = test: Test B: grape downy mildew, spray 24 h after inoculation (disease rating, 100 = 100% disease control); details: spray 24 h after inoculation
Outline: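 Grape seedlings were inoculated with Plasmopara viticola and held 24 h saturated at 20 °C, then sprayed to run-off with compound suspension (acetone/water with 250 ppm Trem 014; 200 ppm ≈ 500 g/ha). After 5 days at 20 °C and 24 h saturation, disease was rated from 0 to 100% control versus untreated.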

Phytophthora infestans [1] = test: whole plant or invertebrate; details: tomato late blight, spray the day before inoculation
Phytophthora infestans [2] = test: whole plant or invertebrate; details: tomato late blight, spray 17 h after inoculation
[3] = tested on: Erysiphe graminis f. sp. tritici; test: Test E: wheat powdery mildew, spray the day before inoculation (disease rating, 100 = 100% disease control); details: spray the day before inoculation
Outline: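 Wheat seedlings sprayed to run-off with compound suspended in acetone/water 50/50 with 250 ppm Trem 014 (200 ppm equivalent to 500 g/ha); inoculated next day with Erysiphe graminis f. sp. tritici spore dust. Kept 7 days at 20° C, then rated 0–100% disease control versus controls.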

[4] = compounds without asterisk (not 40 or 10 ppm)

Row | Compound | Test B disease rating (100 = 100% disease control, 0 = no disease control) (Plasmopara viticola; [4]) [%] | Test C disease rating (100 = 100% disease control, 0 = no disease control) (Phytophthora infestans [1]; [4]) [%] | Test D disease rating (100 = 100% disease control, 0 = no disease control) (Phytophthora infestans [2]; [4]) [%] | Test E disease rating (100 = 100% disease control, 0 = no disease control) [3, 4] [%] | Test B disease rating (100 = 100% disease control, 0 = no disease control) (Plasmopara viticola; tested at 40 ppm) [%] | Test C disease rating (100 = 100% disease control, 0 = no disease control) (Phytophthora infestans [1]; tested at 40 ppm) [%] | Test D disease rating (100 = 100% disease control, 0 = no disease control) (Phytophthora infestans [2]; tested at 40 ppm) [%] | Test E disease rating (100 = 100% disease control, 0 = no disease control) ([3]; tested at 40 ppm) [%] | other results
1 | Cc1ccc(C)c(CC(=O)N2CCC(c3nc(C(=O)N(C)[C@H](C)C4CCCCC4)cs3)CC2)c1 [compound 166] | 34 | 68 | 16 | 0 | – | – | – | – | –
2 | CN(Cc1ccccn1)C(=O)c1csc(C2CCN(C(=O)Cc3cccc(C(F)(F)F)c3)CC2)n1 [compound 168] | 15 | 8 | 0 | 0 | – | – | – | – | –
3 | CN(Cc1ccncc1)C(=O)c1csc(C2CCN(C(=O)Cc3cccc(C(F)(F)F)c3)CC2)n1 [compound 169] | 8 | 68 | 0 | 0 | – | – | – | – | –
4 | Cc1cccc(CC(=O)N2CCC(c3nc(C(=O)N(C)Cc4ccncc4)cs3)CC2)c1 [compound 170] | 7 | 29 | 0 | 0 | – | – | – | – | –
5 | Cc1cc(C(F)(F)F)nn1CC(=O)N1CCC(c2nc(C(=O)N(C)C3CCOc4ccccc43)cs2)CC1 (centres unmarked) [compound 179] | – | – | – | – | – | – | – | – | Test B disease rating (100 = 100% disease control, 0 = no disease control) (Plasmopara viticola; tested at 10 ppm): 96%; Test C disease rating (100 = 100% disease control, 0 = no disease control) (Phytophthora infestans [1]; tested at 10 ppm): 100%; Test D disease rating (100 = 100% disease control, 0 = no disease control) (Phytophthora infestans [2]; tested at 10 ppm): 87%; Test E disease rating (100 = 100% disease control, 0 = no disease control) ([3]; tested at 10 ppm): 0%
6 | Cc1cc(C(F)(F)F)nn1CC(=O)N1CCC(c2nc(C(=O)N(C)C3CCSc4ccccc43)cs2)CC1 (centres unmarked) [compound 180] | – | – | – | – | – | – | – | – | Test B disease rating (100 = 100% disease control, 0 = no disease control) (Plasmopara viticola; tested at 10 ppm): 47%; Test C disease rating (100 = 100% disease control, 0 = no disease control) (Phytophthora infestans [1]; tested at 10 ppm): 100%; Test D disease rating (100 = 100% disease control, 0 = no disease control) (Phytophthora infestans [2]; tested at 10 ppm): 92%; Test E disease rating (100 = 100% disease control, 0 = no disease control) ([3]; tested at 10 ppm): 0%
7 | Cc1cc(C(F)(F)F)nn1CC(=O)N1CCC(c2nc(C(=O)N(C)C3CCCCc4ccccc43)cs2)CC1 (centres unmarked) [compound 181] | – | – | – | – | – | – | – | – | Test B disease rating (100 = 100% disease control, 0 = no disease control) (Plasmopara viticola; tested at 10 ppm): 73%; Test C disease rating (100 = 100% disease control, 0 = no disease control) (Phytophthora infestans [1]; tested at 10 ppm): 100%; Test D disease rating (100 = 100% disease control, 0 = no disease control) (Phytophthora infestans [2]; tested at 10 ppm): 98%; Test E disease rating (100 = 100% disease control, 0 = no disease control) ([3]; tested at 10 ppm): 0%
8 | Cc1cc(C(F)(F)F)nn1CC(=O)N1CCC(c2nc(C(=O)N(C)C3CCCc4sccc43)cs2)CC1 (centres unmarked) [compound 182] | – | – | – | – | 99 | 100 | 98 | 0 | –
9 | Cc1cc(C(F)(F)F)nn1CC(=O)N1CCC(c2nc(C(=O)N(C)C3CCCc4occc43)cs2)CC1 (centres unmarked) [compound 183] | – | – | – | – | – | – | – | – | Test B disease rating (100 = 100% disease control, 0 = no disease control) (Plasmopara viticola; tested at 10 ppm): 0%; Test C disease rating (100 = 100% disease control, 0 = no disease control) (Phytophthora infestans [1]; tested at 10 ppm): 40%; Test D disease rating (100 = 100% disease control, 0 = no disease control) (Phytophthora infestans [2]; tested at 10 ppm): 16%; Test E disease rating (100 = 100% disease control, 0 = no disease control) ([3]; tested at 10 ppm): 0%
10 | Cc1cc(C(F)(F)F)nn1CC(=O)N1CCC(c2nc(C(=O)N(C)C3COc4ccccc43)cs2)CC1 (centres unmarked) [compound 184] | – | – | – | – | – | – | – | – | Test B disease rating (100 = 100% disease control, 0 = no disease control) (Plasmopara viticola; tested at 10 ppm): 77%; Test C disease rating (100 = 100% disease control, 0 = no disease control) (Phytophthora infestans [1]; tested at 10 ppm): 99%; Test D disease rating (100 = 100% disease control, 0 = no disease control) (Phytophthora infestans [2]; tested at 10 ppm): 76%; Test E disease rating (100 = 100% disease control, 0 = no disease control) ([3]; tested at 10 ppm): 0%
11 | Cc1cc(C(F)(F)F)nn1CC(=O)N1CCC(c2nc(C(=O)N(C)C3CSCc4ccccc43)cs2)CC1 (centres unmarked) [compound 185] | – | – | – | – | – | – | – | – | Test B disease rating (100 = 100% disease control, 0 = no disease control) (Plasmopara viticola; tested at 10 ppm): 99%; Test C disease rating (100 = 100% disease control, 0 = no disease control) (Phytophthora infestans [1]; tested at 10 ppm): 100%; Test D disease rating (100 = 100% disease control, 0 = no disease control) (Phytophthora infestans [2]; tested at 10 ppm): 98%; Test E disease rating (100 = 100% disease control, 0 = no disease control) ([3]; tested at 10 ppm): 0%
12 | Cc1cc(C(F)(F)F)nn1CC(=O)N1CCC(c2nc(C(=O)N(C)C3CCCCC3c3ccccc3)cs2)CC1 (centres unmarked) [compound 186] | – | – | – | – | – | – | – | – | Test B disease rating (100 = 100% disease control, 0 = no disease control) (Plasmopara viticola; tested at 10 ppm): 0%; Test C disease rating (100 = 100% disease control, 0 = no disease control) (Phytophthora infestans [1]; tested at 10 ppm): 97%; Test D disease rating (100 = 100% disease control, 0 = no disease control) (Phytophthora infestans [2]; tested at 10 ppm): 58%; Test E disease rating (100 = 100% disease control, 0 = no disease control) ([3]; tested at 10 ppm): 0%
13 | Cc1cc(C(F)(F)F)nn1CC(=O)N1CCC(c2nc(C(=O)N(C)C3CCCc4c(O)cccc43)cs2)CC1 (centres unmarked) [compound 189] | 93 | 100 | 99 | 0 | – | – | – | – | –
14 | Cc1cc(C(F)(F)F)nn1CC(=O)N1CCC(c2nc(C(=O)N(C)C3c4ccccc4CCC3O)cs2)CC1 (centres unmarked) [compound 194] | – | – | – | – | 0 | 98 | 74 | 0 | –
15 | CC(=O)OC1CCc2ccccc2C1N(C)C(=O)c1csc(C2CCN(C(=O)Cn3nc(C(F)(F)F)cc3C)CC2)n1 (centres unmarked) [compound 195] | 47 | 99 | 88 | 0 | – | – | – | – | –
16 | COc1cccc2c1CCCC2N(C)C(=O)c1csc(C2CCN(C(=O)Cn3nc(C(F)(F)F)cc3C)CC2)n1 (centres unmarked) [compound 196] | – | – | – | – | 97 | 100 | 99 | 0 | –
17 | COc1ccc2c(c1)CCCC2N(C)C(=O)c1csc(C2CCN(C(=O)Cn3nc(C(F)(F)F)cc3C)CC2)n1 (centres unmarked) [compound 197] | – | – | – | – | 98 | 100 | 99 | 0 | –
18 | COc1ccc2c(c1)C(N(C)C(=O)c1csc(C3CCN(C(=O)Cn4nc(C(F)(F)F)cc4C)CC3)n1)CCC2 (centres unmarked) [compound 198] | – | – | – | – | 99 | 100 | 99 | 0 | –
19 | Cc1cc(C(F)(F)F)nn1CC(=O)N1CCC(c2nc(C(=O)N(C)C3CCC(C)(C)c4ccccc43)cs2)CC1 (centres unmarked) [compound 199] | – | – | – | – | 99 | 100 | 99 | 0 | –
20 | Cc1cc(C(F)(F)F)nn1CC(=O)N1CCC(c2nc(C(=O)N(C)C3CCCc4cc(Cl)ccc43)cs2)CC1 (centres unmarked) [compound 201] | – | – | – | – | 98 | 100 | 99 | 0 | –
21 | Cc1cc(C(F)(F)F)nn1CC(=O)N1CCC(c2cc(C(=O)N(C)[C@@H]3CCCc4ccccc43)no2)CC1 [compound 202] | 97 | 100 | 99 | 0 | – | – | – | – | –
22 | Cc1cc(C(F)(F)F)nn1CC(=O)N1CCC(c2cc(C(=O)N(C)[C@@H]3CCCc4ccccc43)on2)CC1 [compound 203] | 94 | 100 | 99 | 0 | – | – | – | – | –
23 | Cc1cccnc1CC(=O)N1CCC(c2nc(C(=O)N(C)[C@@H]3CCCc4ccccc43)cs2)CC1 [compound 204] | 16 | 99 | 98 | 0 | – | – | – | – | –
24 | CN(C(=O)c1csc(C2CCN(C(=O)Cc3ccccn3)CC2)n1)[C@@H]1CCCc2ccccc21 [compound 205] | 0 | 75 | 17 | 0 | – | – | – | – | –
25 | Cc1cc(C(F)(F)F)nn1CC(=O)N1CCC(c2nc(C(=O)N(C)C3c4ccccc4CC3O)cs2)CC1 (centres unmarked) [compound 207] | 36 | 99 | 99 | 0 | – | – | – | – | –
26 | CC(=O)OC1CCC(N(C)C(=O)c2csc(C3CCN(C(=O)Cn4nc(C(F)(F)F)cc4C)CC3)n2)c2ccccc21 (centres unmarked) [compound 212] | – | – | – | – | 97 | 100 | 99 | 0 | –
